# Experimental data from patent US11530244B2, “Cyclic polypeptides for PCSK9 inhibition” (priority 2018, dated 2022).
# Starred links: 1 amine or outer side, 2 acyl side, 3 side chain; linkers in the order of their positions; H or OH if unused. Positions of bridges follow the written chain, without caps; N, C: chain ends. Non-standard residues stand in square brackets, D forms with d. Residues, ends and D or L forms follow the SMILES beside them. ξ: configuration not given here. Trp(5-F) = N[C@@H](Cc1c[nH]c2ccc(F)cc12)C(=O)O; Phe(4-CH2NH2) = NCc1ccc(C[C@H](N)C(=O)O)cc1; mXylylene(5-F) = Fc1cc(C[*:1])cc(C[*:2])c1; ξPhe(4-COOH) = NC(Cc1ccc(C(=O)O)cc1)C(=O)O; isoGln = NC(=O)[C@H](CCC(=O)[*:2])N[*:1]; Nle(6-COOH) = N[C@@H](CCCCC(=O)O)C(=O)O; X4 = O=C(CCSCc1cccc(CSCCN[*:1])c1)[*:2]; mXylylene = c1cc(C[*:1])cc(C[*:2])c1; d(aThr) = C[C@@H](O)[C@@H](N)C(=O)O; Glutaryl = O=C(CCCC(=O)[*:2])[*:1]; X7 = O=C(Cc1ccc(CN[*:1])cc1)[*:2]; αMeP = C[C@@]1(C(=O)O)CCCN1; dOrn = NCCC[C@@H](N)C(=O)O; Mpa = O=C(O)CCS
# Legend:
# Format in all cases: binding
# PCSK9 [1] = target: T1, PCSK9 (Homo sapiens (Human), UniProt Q8NBP7); test: PCSK9 Alexa FRET Plus assay (displacement of AlexaFluor647 tagged cyclic peptide Reagent B); settings: Alexa FRET Plus, 0.5 nM PCSK9, 960 nM AF cyclic peptide Reagent B; read-out: IC50
# In short: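 TR-FRET displacement with final 0.5 nM biotinylated PCSK9, 1.25 nM Strep-Eu and 960 nM AlexaFluor-tagged cyclic peptide in HEPES pH 7.4, NaCl, CaCl2, BSA, P20; ≥2 h at room temperature. IC50 from sigmoidal fit, converted to Ki using peptide KD. Falling europium counts flagged false positives.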
# PCSK9 [2] = target: T1, PCSK9; test: PCSK9 Alexa FRET Standard assay (displacement of AlexaFluor647 tagged cyclic peptide Reagent A); settings: PCSK9 Alexa FRET Standard assay, 0.5 nM PCSK9, 20 nM AF cyclic peptide Reagent A; read-out: IC50
# In short: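 TR-FRET displacement: 0.5 nM biotinylated PCSK9 with 1.25 nM Strep-Eu and 20 nM AlexaFluor-tagged cyclic peptide (final) in 50 mM HEPES pH 7.4, 0.15 M NaCl, 5 mM CaCl2, 0.01% BSA, 0.01% P20, ≥2 h at room temperature. IC50 from sigmoidal fit, converted to Ki via peptide KD; falling Eu counts flagged false positives.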
# [3] = target: human PCSK9 / human LDLR EGFa domain interaction (Homo sapiens (Human), UniProt Q8NBP7); test: TR-FRET assay of inhibition of the PCSK9-LDLR protein-protein interaction; settings: TR-FRET, 20 nM human PCSK9, 20 nM human LDLR EGFa domain, 2 hours room temperature; read-out: IC50
# In short: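 Inhibition of PCSK9 binding to the LDLR EGFa domain, each protein at 20 nM, detected by TR-FRET using streptavidin and anti-His donor/acceptor labels (5 nM). Two-hour room-temperature incubation in calcium-containing HEPES buffer.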
# T1 sequence (Q8NBP7 153-692): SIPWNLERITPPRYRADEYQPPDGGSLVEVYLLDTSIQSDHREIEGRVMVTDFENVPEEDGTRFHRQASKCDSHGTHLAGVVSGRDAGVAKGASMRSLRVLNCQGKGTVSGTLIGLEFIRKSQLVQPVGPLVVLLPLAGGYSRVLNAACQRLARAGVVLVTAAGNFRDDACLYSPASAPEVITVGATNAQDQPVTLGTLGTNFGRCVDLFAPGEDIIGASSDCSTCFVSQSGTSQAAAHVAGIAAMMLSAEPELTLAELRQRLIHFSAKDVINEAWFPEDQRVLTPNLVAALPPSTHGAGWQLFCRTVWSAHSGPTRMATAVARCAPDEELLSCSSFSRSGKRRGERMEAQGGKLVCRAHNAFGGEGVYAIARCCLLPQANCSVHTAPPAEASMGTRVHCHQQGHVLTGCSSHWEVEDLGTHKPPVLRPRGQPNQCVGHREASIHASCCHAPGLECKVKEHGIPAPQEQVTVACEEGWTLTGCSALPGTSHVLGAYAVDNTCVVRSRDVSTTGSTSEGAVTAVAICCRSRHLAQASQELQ
# Sequence of human PCSK9 / human LDLR EGFa domain interaction (Q8NBP7 153-692): as above
# Sequence of human PCSK9 / human LDLR EGFa domain interaction (Q8NBP7 31-152 partner): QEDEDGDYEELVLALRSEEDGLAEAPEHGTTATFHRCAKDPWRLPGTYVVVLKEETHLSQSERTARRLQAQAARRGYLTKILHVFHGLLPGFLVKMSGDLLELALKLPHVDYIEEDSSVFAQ
SMILES,IC50 (PCSK9 [1]),IC50 (PCSK9 [2]),IC50 [3]
C[C@@H]1NC(=O)CCCC(=O)NCc2ccc(cc2)C[C@@H](C(N)=O)NC(=O)[C@]2(C)CCCN2C(=O)[C@H](Cc2ccc(O)cc2)NC(=O)[C@H](Cc2cnc[nH]2)NC(=O)[C@H](CC(=O)O)NC(=O)[C@H](Cc2c[nH]c3ccc(F)cc23)NC(=O)[C@H](Cc2c[nH]c3ccc(F)cc23)NC(=O)CNC1=O [Compound 366] (AG[Trp(5-F)][Trp(5-F)]DHY[αMeP][Phe(4-CH2NH2)]-NH2; linker N-9 via Glutaryl),0.1 to 100 nM,0.11 to 100 nM,0.1 to 100 nM
COc1ccc(C[C@@H]2NC(=O)[C@@H]([C@@H](C)O)NC(=O)[C@H](CCCCC(=O)O)NC(=O)[C@H](Cc3c[nH]c4ccc(F)cc34)NC(=O)[C@H](Cc3ccc(CN)cc3)NC(=O)[C@@H](C)NC(=O)[C@H](C)NC(=O)CCSCc3cccc(c3)CSCCNC(=O)[C@]3(C)CCCN3C2=O)cc1 [Compound 385] (cyclo(A[dA][Phe(4-CH2NH2)][Trp(5-F)][Nle(6-COOH)][d(aThr)]Y(Me)[αMeP][X4])),0.1 to 100 nM,0.11 to 100 nM,0.1 to 100 nM
COc1ccc(C[C@@H]2NC(=O)[C@H](C(C)C)NC(=O)[C@@H]3CCCN3C(=O)[C@H](Cc3c[nH]c4ccc(F)cc34)NC(=O)[C@H](Cc3c[nH]c4ccc(F)cc34)NC(=O)[C@@H](C)NC(=O)[C@H](CCCCN)NC(=O)CCSCc3cc(F)cc(c3)CSC[C@@H](C(N)=O)NC(=O)[C@]3(C)CCCN3C2=O)cc1 [Compound 010] ([Mpa]K[dA][Trp(5-F)][Trp(5-F)]PVY(Me)[αMeP]C-NH2; linker 1-10 via mXylylene(5-F)),500 to 5000 nM,100 to 1000 nM,0.1 to 100 nM
COc1ccc(C[C@@H]2NC(=O)[C@H](Cc3cnc[nH]3)NC(=O)[C@H](CC(=O)O)NC(=O)[C@H](Cc3c[nH]c4ccc(F)cc34)NC(=O)[C@H](Cc3c[nH]c4ccc(F)cc34)NC(=O)[C@@H](C)NC(=O)[C@H](NC(C)=O)CCCCNC(=O)Cc3ccc(cc3)CNC(=O)CC[C@@H](C(N)=O)NC(=O)[C@]3(C)CCCN3C2=O)cc1 [Compound 398] (Ac-[dK][dA][Trp(5-F)][Trp(5-F)]DHY(Me)[αMeP][isoGln][X7]; lactam 1-C),100 to 500 nM,0.11 to 100 nM,0.1 to 100 nM
COc1ccc(C[C@@H]2NC(=O)[C@H](Cc3ccc(OC)cc3)NC(=O)[C@@H](CC(C)C)NC(=O)[C@H]([C@@H](C)OC)NC(=O)CCSCc3cccc(c3)CSC[C@@H](C(N)=O)NC(=O)[C@@H]3CCCN3C(=O)[C@H](Cc3ccc(OC)cc3)NC(=O)[C@H](Cc3ccc(OC)cc3)NC(=O)[C@H](CC(C)C)NC2=O)cc1 [Compound 034] ([Mpa]T(Me)[dL]Y(Me)Y(Me)LY(Me)Y(Me)PC-NH2; linker 1-10 via mXylylene),0.1 to 100 nM,0.11 to 100 nM,0.1 to 100 nM
CC(=O)N[C@@H]1CCCNC(=O)c2ccc(cc2)CC(C(N)=O)NC(=O)[C@]2(C)CCCN2C(=O)[C@H](Cc2ccc(O)cc2)NC(=O)[C@H](Cc2cnc[nH]2)NC(=O)[C@H](CC(=O)O)NC(=O)[C@H](Cc2c[nH]c3ccc(F)cc23)NC(=O)[C@H](Cc2c[nH]c3ccc(F)cc23)NC(=O)CNC1=O (stereo partly drawn) [Compound 327] (Ac-[dOrn]G[Trp(5-F)][Trp(5-F)]DHY[αMeP][ξPhe(4-COOH)]-NH2; lactam 1-9),100 to 500 nM,0.11 to 100 nM,0.1 to 100 nM
